Earlier results, collected in patent US20110104137A1, “ADJUNCTS AND COMPLEXES FOR IMPROVING HMG-CoA REDUCTASE INHIBITOR (STATIN) AND SELECTIVE PHOSPHODIESTERASE 5 INHIBITOR THERAPY” (ChronoRX LLC, an Alaska Limited Liability Company, priority 2009, published 2011).
Each block holds one compound with its values, some of them ahead of it.

Assays:
[1] = in vivo
[2] = no hyperlipidemia, elevated high-sensitivity CRP
[3] = rosuvastatin 40 mg/d
[4] = tested on: ADMA; details: in vivo
[5] = 12 months, IVUS
[6] = atorvastatin 80 mg versus pravastatin 40 mg, after ACS
[7] = tested on: PGI2; details: administered therapeutic dose, humans
[8] = tested on: Lp(a); details: patients with otherwise elevated levels
[9] = oral L-CAR; placebo group 26.0%
[10] = target: T1, CETP (Homo sapiens, UniProt P11597)
T1 construct: Circulating CETP mediates the transfer of cholesteryl esters from HDL to LDL; host or cells: patients (endogenous plasma CETP, in vivo)
T1 sequence (P11597 18-493): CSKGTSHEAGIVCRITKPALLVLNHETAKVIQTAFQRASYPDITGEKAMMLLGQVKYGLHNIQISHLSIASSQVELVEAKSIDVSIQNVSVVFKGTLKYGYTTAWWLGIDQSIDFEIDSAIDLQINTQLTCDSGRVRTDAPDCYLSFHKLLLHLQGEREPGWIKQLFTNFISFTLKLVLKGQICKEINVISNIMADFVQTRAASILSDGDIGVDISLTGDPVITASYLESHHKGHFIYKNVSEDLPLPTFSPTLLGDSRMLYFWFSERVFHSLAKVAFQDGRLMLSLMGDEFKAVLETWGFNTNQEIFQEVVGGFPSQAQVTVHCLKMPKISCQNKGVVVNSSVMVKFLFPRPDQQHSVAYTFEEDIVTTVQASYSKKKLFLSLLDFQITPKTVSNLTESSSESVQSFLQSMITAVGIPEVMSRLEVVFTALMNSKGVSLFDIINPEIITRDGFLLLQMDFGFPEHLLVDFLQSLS

[11] = tested on: NF-kappaB; details: in vitro and ex-vivo
[12] = monotherapy and in combination with a statin

interaction with warfarin [1]: potentiate warfarin
Structure (SMILES): CC[C@H](C)C(=O)O[C@H]1C[C@@H](C)C=C2C=C[C@H](C)[C@H](CC[C@@H]3C[C@@H](O)CC(=O)O3)[C@H]21 [lovastatin]

interaction with warfarin [1]: potentiate warfarin
Structure (SMILES): CC(C)c1nc(N(C)S(C)(=O)=O)nc(-c2ccc(F)cc2)c1/C=C/[C@@H](O)C[C@@H](O)CC(=O)O [rosuvastatin]
incidence of major cardiovascular events [2]: significantly reduced the incidence of major cardiovascular events | average LDL achieved ([3]; 349 patients): 60.8 mg/dL | increase in HDL ([3]; 349 patients): 14.7% | regression of atherosclerosis ([3]; intravascular ultrasound): significant regression of atherosclerosis | effect on plasma ADMA [4]: decrease in plasma ADMA

interaction with warfarin [1]: potentiate warfarin
Structure (SMILES): CC(C)c1c(C(=O)Nc2ccccc2)c(-c2ccccc2)c(-c2ccc(F)cc2)n1CC[C@@H](O)C[C@@H](O)CC(=O)O [atorvastatin]
progression of mean plaque volume or thickness ([5]; 131 patients, placebo 9.6): 1.2 mm^3 | hyperechogenicity of the plaque ([5]; compared to placebo): increased the hyperechogenicity of the plaque | rate of hospitalization for HF [6]: significantly reduced the rate of hospitalization for HF | PGI2 signaling [7]: does not significantly decrease PGI2 signaling

Structure (SMILES): CC(=O)O[C@H](CC(=O)[O-])C[N+](C)(C)C [L-CAR, Acetyl-L-carnitine]
plasma Lp(a) [8]: reduce plasma Lp(a) | total cardiac events, including cardiac death and nonfatal infarction [9]: 15.6%

Structure (SMILES): CCOC(=O)N1c2ccc(C(F)(F)F)cc2[C@@H](N(Cc2cc(C(F)(F)F)cc(C(F)(F)F)c2)C(=O)OC)C[C@H]1CC [torcetrapib]
mortality ([10]; mean follow-up of 550 days, cardiovascular and noncardiovascular causes): significant increase in mortality | HDL-CHOL levels [10, 12]: markedly increased HDL-CHOL levels | LDL-CHOL [10, 12]: reduced LDL-CHOL | mean particle size of HDL and LDL [10, 12]: increased the mean particle size of both HDL and of LDL

Structure (SMILES): O=C(O)CCCCC1CCSS1 (stereo not shown) [LA, 1,2-dithiolane-3-pentanoic acid]
NF-kappaB activation [11]: inhibits NF-kappaB activation
